Experimental findings from patent US20230312481A1, “SUBSTITUTED (PHTHALAZIN-1-YLMETHYL)UREAS, SUBSTITUTED N-(PHTHALAZIN-1-YLMETHYL)AMIDES, AND ANALOGUES THEREOF” (priority 2020, published 2023) are described below.

The test system of the first assay is HBV rcDNA in HepDE19 cells. As to the kind of experiment: HepDE19 assay with bDNA quantitation of HBV rcDNA. The class given is cell-based, hepatitis B virus. Conditions: HepDE19 cells, 7 day incubation, rcDNA measured by Quantigene 2.0 bDNA assay; top concentration 25 µM; read-out: DE-19bDNA EC50. Put shortly: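 HepDE19 cells were induced by tetracycline withdrawal, then treated with compounds (0.5% DMSO final) for 7 days at 37 °C. HBV rcDNA measured by bDNA assay with HBV-specific probes. Viability assessed on replicate plates (5,000 cells/well, 4 days) by CellTiter-Glo ATP content.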
A word on the EC50: it is the concentration at which the effect is half-maximal. As to `CC(c1n[nH]c(=O)c2cc(F)c(F)cc12)N(C)C(=O)c1cc2sc(F)cc2[nH]1` (single isomer, unassigned) [Compound 102, N-(1-(6,7-difluoro-4-oxo-3,4-dihydrophthalazin-1-yl)ethyl)-2-fluoro-N-methyl-4H-thieno[3,2-b]pyrrole-5-carboxamide], the concentration giving a half-maximal response (EC50) came to 3770 nM.

On to `CC(c1n[nH]c(=O)c2cc(F)c(F)cc12)N(C)C(=O)c1cc2sc(F)cc2[nH]1` (single isomer, unassigned) [Compound 103, N-(1-(6,7-difluoro-4-oxo-3,4-dihydrophthalazin-1-yl)ethyl)-2-fluoro-N-methyl-4H-thieno[3,2-b]pyrrole-5-carboxamide], for which the EC50 was determined as 60 nM.

Take `CC(c1n[nH]c(=O)c2cc(F)c(F)cc12)N(C)C(=O)c1ccc2ccn(C)c2c1` (single isomer, unassigned) [Compound 104, N-(1-(6,7-difluoro-4-oxo-3,4-dihydrophthalazin-1-yl)ethyl)-N,1-dimethyl-1H-indole-6-carboxamide]: the EC50 is greater than 25000 nM.

Take `CC(c1n[nH]c(=O)c2cc(F)c(F)cc12)N(C)C(=O)c1ccc2ccn(C)c2c1` (single isomer, unassigned) [Compound 105, N-(1-(6,7-difluoro-4-oxo-3,4-dihydrophthalazin-1-yl)ethyl)-N,1-dimethyl-1H-indole-6-carboxamide]: the EC50 worked out at 1000 nM.

In the case of `CC(c1n[nH]c(=O)c2cc(F)c(F)cc12)N(C)C(=O)c1ccc2c(ccn2C)c1` (single isomer, unassigned) [Compound 106, N-(1-(6,7-difluoro-4-oxo-3,4-dihydrophthalazin-1-yl)ethyl)-N,1-dimethyl-1H-indole-5-carboxamide], the EC50 worked out at 4030 nM.

For the compound `CC(c1n[nH]c(=O)c2cc(F)c(F)cc12)N(C)C(=O)c1ccc2c(ccn2C)c1` (single isomer, unassigned) [Compound 107, N-(1-(6,7-difluoro-4-oxo-3,4-dihydrophthalazin-1-yl)ethyl)-N,1-dimethyl-1H-indole-5-carboxamide], the EC50 was determined as 110 nM.

In the case of `CC(c1n[nH]c(=O)c2cc(F)c(F)cc12)N(C)C(=O)c1cc(F)c(C(F)F)c(F)c1` (single isomer, unassigned) [Compound 108, N-(1-(6,7-difluoro-4-oxo-3,4-dihydrophthalazin-1-yl)ethyl)-4-(difluoromethyl)-3,5-difluoro-N-methylbenzamide], the EC50 was determined as 9950 nM.

On to `CC(c1n[nH]c(=O)c2cc(F)c(F)cc12)N(C)C(=O)c1cc(F)c(C(F)F)c(F)c1` (single isomer, unassigned) [Compound 109, N-(1-(6,7-difluoro-4-oxo-3,4-dihydrophthalazin-1-yl)ethyl)-4-(difluoromethyl)-3,5-difluoro-N-methylbenzamide], for which the EC50 was determined as 110 nM.

For `CC(c1n[nH]c(=O)c2cc(F)c(F)cc12)N(C)C(=O)c1ccc2[nH]ncc2c1` (single isomer, unassigned) [Compound 110, N-(1-(6,7-difluoro-4-oxo-3,4-dihydrophthalazin-1-yl)ethyl)-N-methyl-1H-indazole-5-carboxamide], the EC50 is greater than 25000 nM.

On to `CC(c1n[nH]c(=O)c2cc(F)c(F)cc12)N(C)C(=O)c1ccc2[nH]ncc2c1` (single isomer, unassigned) [Compound 111, N-(1-(6,7-difluoro-4-oxo-3,4-dihydrophthalazin-1-yl)ethyl)-N-methyl-1H-indazole-5-carboxamide], for which the EC50 was determined as 8880 nM.

Consider `CC(c1n[nH]c(=O)c2cc(F)c(F)cc12)N(C)C(=O)c1ccc2cn[nH]c2c1` (single isomer, unassigned) [Compound 112, N-(1-(6,7-difluoro-4-oxo-3,4-dihydrophthalazin-1-yl)ethyl)-N-methyl-1H-indazole-6-carboxamide], for which the EC50 was greater than 25000 nM.

As for `CC(c1n[nH]c(=O)c2cc(F)c(F)cc12)N(C)C(=O)c1ccc2cn[nH]c2c1` (single isomer, unassigned) [Compound 113, N-(1-(6,7-difluoro-4-oxo-3,4-dihydrophthalazin-1-yl)ethyl)-N-methyl-1H-indazole-6-carboxamide], the EC50 is 2490 nM.

The assay is the same for the next values; noted with them: Hepatitis B virus, HepDE19, 168 h, HepDE19 cells, 7 day incubation, rcDNA measured by Quantigene 2.0 bDNA assay; top concentration 25 µM; read-out: DE-19bDNA EC50.
With `C[C@@H](c1n[nH]c(=O)c2cc(F)c(F)cc12)N(C)C(=O)Nc1ccc(F)c(Cl)c1` [Compound 31, 3-(3-chloro-4-fluorophenyl)-1-(1-(6,7-difluoro-4-oxo-3,4-dihydrophthalazin-1-yl)ethyl)-1-methylurea], the 50% effective concentration (EC50) was 1800 nM.

Regarding `CC(c1n[nH]c(=O)c2c(F)cccc12)N(C)C(=O)Nc1ccc(F)c(Cl)c1` (centres unmarked) [Compound 44, 3-(3-chloro-4-fluorophenyl)-1-(1-(5-fluoro-4-oxo-3,4-dihydrophthalazin-1-yl)ethyl)-1-methylurea], the EC50 amounted to 290 nM.

Take `CC(c1n[nH]c(=O)c2c(F)cccc12)N(C)C(=O)Nc1ccc(F)c(F)c1` (centres unmarked) [Compound 45, 3-(3,4-difluorophenyl)-1-(1-(5-fluoro-4-oxo-3,4-dihydrophthalazin-1-yl)ethyl)-1-methylurea]: the EC50 is 790 nM.

The assay is the same for the next values; noted with them: Hepatitis B virus, HepDE19, 168 h, read-out: DE-19bDNA EC50.
As for `C[C@H](c1nn(C)c(=O)c2cc(F)c(F)cc12)N(C)C(=O)Nc1ccc(F)c(Cl)c1` [Compound 36, (R)-3-(3-chloro-4-fluorophenyl)-1-[1-(6,7-difluoro-3-methyl-4-oxo-phthalazin-1-yl)ethyl]-1-methyl-urea], the EC50 stood at 13 nM.

For the compound `C[C@@H](c1nn(C)c(=O)c2cc(F)c(F)cc12)N(C)C(=O)Nc1ccc(F)c(Cl)c1` [Compound 37, (S)-3-(3-chloro-4-fluorophenyl)-1-(1-(6,7-difluoro-3-methyl-4-oxo-3,4-dihydrophthalazin-1-yl)ethyl)-1-methylurea], the EC50 amounted to 2300 nM.

As for `C[C@@H](c1nn(C)c(=O)c2cc(F)c(F)cc12)N(C)C(=O)Nc1ccc(F)cc1` [Compound 38, (S)(1-(6,7-difluoro-3-methyl-4-oxo-3,4-dihydrophthalazinyl)ethyl)-3-(4-fluorophenyl)methylurea], the EC50 is 8200 nM.

Consider `CC(C)CN(C(=O)Nc1ccccc1)C(C)c1n[nH]c(=O)c2cc(F)c(F)cc12` (centres unmarked) [Compound 40, 1-(1-(6,7-difluoro-4-oxo-3,4-dihydrophthalazin-1-yl)ethyl)-1-isobutyl-3-phenylurea], for which the EC50 is 17 nM.

In the case of `C[C@H](c1n[nH]c(=O)c2cc(F)c(F)cc12)N(C)C(=O)Nc1ccc(F)c(F)c1` [Compound 41, (R)(1-(6,7-difluoro-4-oxo-3,4-dihydrophthalazinyl)ethyl)methyl-3-(3,4-difluorophenyl)urea], the EC50 turned out to be 24 nM.

As to `C[C@H](c1n[nH]c(=O)c2cc(F)c(F)cc12)N(C)C(=O)Nc1cc(F)c(F)c(F)c1` [Compound 42, (R)(1-(6,7-difluoro-4-oxo-3,4-dihydrophthalazinyl)ethyl)methyl-3-(3,4,5-trifluorophenyl)urea], the EC50 was found to be 25 nM.

Regarding `C[C@H](c1n[nH]c(=O)c2cc(F)c(F)cc12)N(C)C(=O)Nc1ccc(F)cc1` [Compound 43, (R)(1-(6,7-difluoro-4-oxo-3,4-dihydrophthalazinyl)ethyl)-3-(4-fluorophenyl)methylurea], the EC50 worked out at 59 nM.

With `C[C@H](c1n[nH]c(=O)c2cc(F)c(F)cc12)N(C)C(=O)c1cc2ccccc2[nH]1` [Compound 46, (R)-N-(1-(6,7-difluoro-4-oxo-3,4-dihydrophthalazin-1-yl)ethyl)-N-methyl-1H-indole-2-carboxamide], the EC50 was 32 nM.
